From patent US8362000B2, “Azetidinyl diamides as monoacylglycerol lipase inhibitors” (Janssen Pharmaceutica NV, priority 2009, dated 2013) come the findings set out here.

SMILES strings stand for the structures.

The first experiment has as its target T1, mutant MGL (Homo sapiens, UniProt Q99685, L169S/L176S).
T1 sequence (Q99685 1-303 L169S/L176S): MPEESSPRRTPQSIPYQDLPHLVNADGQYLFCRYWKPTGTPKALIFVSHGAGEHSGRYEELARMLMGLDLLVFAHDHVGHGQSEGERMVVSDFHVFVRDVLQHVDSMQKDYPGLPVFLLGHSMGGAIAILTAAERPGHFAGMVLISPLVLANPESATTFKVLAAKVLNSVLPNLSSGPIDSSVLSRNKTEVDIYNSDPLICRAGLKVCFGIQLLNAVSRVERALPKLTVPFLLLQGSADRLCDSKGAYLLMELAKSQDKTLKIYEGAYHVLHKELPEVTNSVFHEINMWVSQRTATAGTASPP
Briefly: MGL ThermoFluor assay - mutant. Type of experiment: binding. The note with it: ThermoFluor concentration-response, read-out: MGL mutant ThermoFluor Kd.
With `O=C(c1cnon1)N1CC(N2CCN(C(=O)c3cc4cc(C(F)(F)F)ccc4s3)CC2)C1` [Cpd 921, 1-[1-(1,2,5-Oxadiazol-3-ylcarbonyl)azetidin-3-yl]-4-{[5-(trifluoromethyl)-1-benzothiophen-2-yl]carbonyl}piperazine], the Kd (in general, the free concentration of one partner at which half of the binding sites on the other are occupied at equilibrium, for simple one-to-one binding) is 4260 nM.

Regarding `O=C(c1cscn1)N1CCN(C2CN(C(=O)[C@@H]3C[C@H]3c3ccc(SC(F)(F)F)cc3)C2)CC1` (racemic) [Cpd 645, 1-(1,3-Thiazol-4-ylcarbonyl)-4-(1-{[(1RS,2RS)-2-{4-[(trifluoromethyl)sulfanyl]phenyl}cyclopropyl]carbonyl}azetidin-3-yl)piperazine], the equilibrium dissociation constant (Kd) was 5440 nM.

As for `O=C(c1ccc(O[C@H]2CCN(C(=O)N3CCCC3)C2)c(I)c1)N1CC(N2CCN(C(=O)c3nccs3)CC2)C1` [Cpd 452], the Kd was found to be 200 nM.

Regarding `N#Cc1ccc(-c2ccc(C(=O)N3CC(N4CCN(C(=O)c5ccccc5)CC4)C3)cc2)cc1` [Cpd 82, 4′-({3-[4-(Phenylcarbonyl)piperazin-1-yl]azetidin-1-yl}carbonyl)biphenyl-4-carbonitrile], the Kd was 571 nM.

Turning to `Cc1ccc(C(=O)N2CCN(C3CN(C(=O)c4ccc(-c5ccccc5)cc4)C3)CC2)s1` [Cpd 14, 1-[1-(Biphenyl-4-ylcarbonyl)azetidin-3-yl]-4-[(5-methylthiophen-2-yl)carbonyl]piperazine], the Kd came out at 250 nM.

For `O=C(c1ccccc1)N1CCN(C2CN(C(=O)c3ccc(-c4ccccc4Cl)cc3)C2)CC1` [Cpd 36, 1-{1-[(2′-Chlorobiphenyl-4-yl)carbonyl]azetidin-3-yl}-4-(phenylcarbonyl)piperazine], the equilibrium dissociation constant (Kd) amounted to 37 nM.

Take `O=C(c1ccc(SCc2cccc(Cl)c2Cl)cc1)N1CC(N2CCN(C(=O)c3nccs3)CC2)C1` [Cpd 413, 1-[1-({4-[(2,3-Dichlorobenzyl)sulfanyl]phenyl}carbonyl)azetidin-3-yl]-4-(1,3-thiazol-2-ylcarbonyl)piperazine]: the Kd turned out to be 2 nM.

`O=C(c1nccs1)N1CCN(C2CN(C(=O)c3cc(Br)ccc3F)C2)CC1` [Cpd 915]: the equilibrium dissociation constant (Kd) was 5000 nM.

In the case of `O=C(c1ccc(CNc2cccc(Cl)c2)cc1)N1CC(N2CCN(C(=O)c3nccs3)CC2)C1` [Cpd 455], the Kd stood at 8.5 nM.

`O=C(c1ccccc1)N1CCN(C2CN(C(=O)c3ccc(=O)n(Cc4ccccc4)c3)C2)CC1` [Cpd 565, 1-Benzyl-5-({3-[4-(phenylcarbonyl)piperazin-1-yl]azetidin-1-yl}carbonyl)pyridin-2(1H)-one]: the Kd was > 31200 nM.

For `COc1cc(C(=O)N2CC(N3CCN(C(=O)c4ccccc4)CC3)C2)ccc1Br` [Cpd 24, 1-{1-[(4-Bromo-3-methoxyphenyl)carbonyl]azetidin-3-yl}-4-(phenylcarbonyl)piperazine], the Kd worked out at 5000 nM.

As to `O=C(c1ccccc1)N1CCN(C2CN(C(=O)c3cc(-c4ccccc4)oc3C(F)(F)F)C2)CC1` [Cpd 624, 1-(Phenylcarbonyl)-4-(1-{[5-phenyl-2-(trifluoromethyl)furan-3-yl]carbonyl}azetidin-3-yl)piperazine], the Kd stood at 880 nM.

With `CC(C)n1c(C(F)(F)F)nc2cc(C(=O)N3CC(N4CCN(C(=O)c5ccccc5)CC4)C3)ccc21` [Cpd 38, 1-(1-Methylethyl)-5-({3-[4-(phenylcarbonyl)piperazin-1-yl]azetidin-1-yl}carbonyl)-2-(trifluoromethyl)-1H-benzimidazole], the Kd was found to be 182 nM.

On to `O=C(c1ccccc1)N1CCN(C2CN(C(=O)c3ccc(F)cc3)C2)CC1` [Cpd 49, 1-{1-[(4-Fluorophenyl)carbonyl]azetidin-3-yl}-4-(phenylcarbonyl)piperazine], for which the dissociation constant Kd turned out to be 6670 nM.

`O=C(c1ccc(Oc2ccccn2)cc1)N1CC(N2CCN(C(=O)c3cscn3)CC2)C1` [Cpd 922]: the Kd was 3890 nM.

Turning to `O=C(c1ccccc1)N1CCN(C2CN(C(=O)c3cnn(-c4ccccc4)c3C(F)(F)F)C2)CC1` [Cpd 626, 1-(Phenylcarbonyl)-4-(1-{[1-phenyl-5-(trifluoromethyl)-1H-pyrazol-4-yl]carbonyl}azetidin-3-yl)piperazine], the dissociation constant (Kd) turned out to be 5020 nM.

As to `O=C(c1cc(Br)cc(C(F)(F)F)c1)N1CC(N2CCN(C(=O)c3cscn3)CC2)C1` [Cpd 923], the Kd was found to be 9930 nM.

With `O=C(/C=C/c1ccc2ccccc2c1)N1CC(N2CCN(C(=O)c3ccccc3)CC2)C1` [Cpd 105, 1-{1-[(2E)-3-Naphthalen-2-ylprop-2-enoyl]azetidin-3-yl}-4-(phenylcarbonyl)piperazine], the Kd was determined as 5000 nM.

Staying with this experiment, now noted: ThermoFluor thermal stability binding assay, read-out: MGL mutant ThermoFluor Kd.
Consider `O=C(c1cscn1)N1CCN(C2CN(C(=O)c3cccc4nc(-c5ccc(Cl)cc5)oc34)C2)CC1` [Cpd 1380, 2-(4-Chlorophenyl)-7-({3-[4-(1,3-thiazol-4-ylcarbonyl)piperazin-1-yl]azetidin-1-yl}carbonyl)-1,3-benzoxazole], for which the dissociation constant Kd amounted to 246 nM.

For the molecule `CC(=O)Nc1nc(C(=O)N2CCN(C3CN(C(=O)c4ccc(-c5ccccc5)cc4)C3)CC2)cs1` [Cpd 480], the Kd is > 76700 nM.

As to `Cc1nc(-c2ccc(F)cc2)sc1C(=O)N1CC(N2CCN(C(=O)c3cscn3)CC2)C1` [Cpd 1386], the Kd came out at 133 nM.

As to `O=C(c1ccc(OCc2ccc3ccccc3n2)cc1)N1CC(N2CCN(C(=O)c3cscn3)CC2)C1` [Cpd 970], the Kd stood at 535 nM.

`O=C(c1ccc(OCc2cncc(Cl)c2)cc1)N1CC(N2CCN(C(=O)c3cscn3)CC2)C1` [Cpd 981]: the Kd came out at 937 nM.

Turning to `Cc1cc(C(=O)N2CC(N3CCN(C(=O)c4cscn4)CC3)C2)ccc1-c1ccc(Cl)c(C(F)(F)F)c1` [Cpd 258, 1-(1-{[4′-Chloro-2-methyl-3′-(trifluoromethyl)biphenyl-4-yl]carbonyl}azetidin-3-yl)-4-(1,3-thiazol-4-ylcarbonyl)piperazine], the Kd was 3.3 nM.

Consider `CS(=O)(=O)c1cccc(-c2ccc(C(=O)N3CC(N4CCN(C(=O)c5cscn5)CC4)C3)cc2)c1` [Cpd 236, 1-(1-{[3′-(Methylsulfonyl)biphenyl-4-yl]carbonyl}azetidin-3-yl)-4-(1,3-thiazol-4-ylcarbonyl)piperazine], for which the Kd was determined as 200 nM.

Turning to `O=C(/C=C/c1ccccc1Br)N1CC(N2CCN(C(=O)c3nccs3)CC2)C1` [Cpd 296, 1-{1-[(2E)-3-(2-Bromophenyl)prop-2-enoyl]azetidin-3-yl}-4-(1,3-thiazol-2-ylcarbonyl)piperazine], the equilibrium dissociation constant (Kd) came out at 476 nM.

With `O=C(c1nccs1)N1CCN(C2CN(C(=O)c3cccc4nc(Cc5ccc(Cl)cc5)[nH]c34)C2)CC1` [Cpd 991], the equilibrium dissociation constant (Kd) is 200 nM.

For the molecule `N#CC=Cc1cccc(-c2ccc(C(=O)N3CC(N4CCN(C(=O)c5nccs5)CC4)C3)cc2)c1` [Cpd 223, 3-[4′-({3-[4-(1,3-Thiazol-2-ylcarbonyl)piperazin-1-yl]azetidin-1-yl}carbonyl)biphenyl-3-yl]prop-2-enenitrile], the Kd came out at 6.7 nM.

Consider `O=C(c1ccccc1)N1CCN(C2CN(C(=O)c3ccc(OCc4ccncc4)c(Cl)c3)C2)CC1` [Cpd 408], for which the dissociation constant (Kd) was 1940 nM.

With `O=C(c1ccccc1)N1CCN(C2CN(C(=O)c3ccc4nc(-c5cccc(C(F)(F)F)c5)oc4c3)C2)CC1` [Cpd 131, 6-({3-[4-(Phenylcarbonyl)piperazin-1-yl]azetidin-1-yl}carbonyl)-2-[3-(trifluoromethyl)phenyl]-1,3-benzoxazole], the Kd is 94.1 nM.
